This note sets out measurements from patent US4042683A, “Rifamycins P, Q and U” (Gruppo Lepetit S.p.A., priority 1974, dated 1977).

Molecules are shown by their SMILES. Converted amounts (≈) assume the structure as drawn. Where two headings read alike, the source gives them in different places. A value given as a limit tells only on which side of the number the result lay.

Experiment [1] relates to Staphylococcus aureus ATCC 6538. As to the kind of experiment: in vitro activity spectrum, minimal inhibition concentration, Staphylococcus aureus ATCC 6538. The settings on record: for MIC: Staphylococcus aureus, read-out: Minimal inhibiton concentration. The class given is cell-based. The text has this:
(§1) | Minimal inhibiton concentration (μg/ml)

Experiment [2] deals with Streptococcus faecalis ATCC 10541. The experiment in a line: in vitro activity spectrum, minimal inhibition concentration, Streptococcus faecalis ATCC 10541. In kind it is cell-based.
From the text: as §1

Experiment [3] has as its system Escherichia coli ATCC 10536. As to the kind of experiment: in vitro activity spectrum, minimal inhibition concentration, Escherichia coli ATCC 10536. The class given is cell-based.
From the text: as §1

The test system of experiment [4] is Pseudomonas aeruginosa ATCC 10145. The experiment in a line: in vitro activity spectrum, minimal inhibition concentration, Pseudomonas aeruginosa ATCC 10145. In kind it is cell-based.
From the text: as §1

Experiment [5] concerns Mycobacterium tub. H37Rv ATCC 9360. As to the kind of experiment: in vitro activity spectrum, minimal inhibition concentration, Mycobacterium tub. H37Rv ATCC 9360. The class given is cell-based.
From the text: as §1

For experiment [6], the system named is Streptococcus hemolyticus C 203. As to the kind of experiment: in vitro activity spectrum, minimal inhibition concentration, Streptococcus hemolyticus C 203. The class given is cell-based.
From the text: as §1

The test system of experiment [7] is Proteus vulgaris X 19 H ATCC 881. As to the kind of experiment: in vitro activity spectrum, minimal inhibition concentration, Proteus vulgaris X 19 H ATCC 881. In kind it is cell-based.
From the text: as §1

The test system of experiment [8] is Staphylococcus aureus Tour rifampicin-resistant. The experiment in a line: in vitro activity spectrum, minimal inhibition concentration, Staphylococcus aureus Tour rifampicin-resistant.
For experiment [9], the system named is Klebsiella pneumoniae ATCC 10031. The experiment in a line: in vitro activity spectrum, minimal inhibition concentration, Klebsiella pneumoniae ATCC 10031. In kind it is cell-based.
From the text: as §1

For experiment [10], the system named is Staphylococcus aureus. As to the kind of experiment: experiments on mice injected with Staphylococcus aureus. In kind it is in vivo. The text has this:
The novel compounds are active also in the laboratory animals injected with Staphylococcus aureus, Escherichia coli. The following table reports the results of representative experiments on mice in comparison with a known natural rifamycin, i.e. rifamycin SV.

Experiment [11] concerns Staphylococcus aureus Tour. The experiment in a line: in vitro activity spectrum, minimal inhibition concentration, Staphylococcus aureus Tour. In kind it is cell-based.
From the text: as §1

Experiment [12] relates to Diplococcus pneumoniae UC 41. As to the kind of experiment: in vitro activity spectrum, minimal inhibition concentration, Diplococcus pneumoniae UC 41. The class given is cell-based.
From the text: as §1

Experiment [13] relates to Bacillus Subtilis. As to the kind of experiment: agar disc inhibition of growth of Bacillus subtilis. The settings on record: Penassay agar pH 7.2, disc of agar carrying a single colony. In kind it is cell-based. As to the method: A suspension of spores of Streptomyces mediterranei ATCC 13685 was treated with N-methyl-N'-nitro-N-nitrosoguanidine at 1 mg/ml in a pH 9.0 tris(hydroxymethyl)aminomethane buffer for 60 minutes at 28° C. The mutagen-treated spores were then washed and plated onto Petri dishes containing Bennett agar. After 14 days incubation at 28° C., the surviving colonies were picked off and examined for their ability to inhibit the growth of Bacillus Subtilis in the following manner: a disc of agar (diameter 4-8 mm) carrying a single colony was transferred onto a Petri disch containing […] agar at pH 7.2 previously seeded at 2% (v/v) with Bacillus Subtilis. […] Three strains were isolated in this way and were originally given our internal code D-2, MM18-6 and M-36. Samples of these microorganisms were deposited with the ATCC where they are identified respectively as Nocardia mediterranea ATCC 31064 Nocardia mediterranea ATCC 31065 and Nocardia mediterranea ATCC 31066.

The term ED50 denotes the midpoint of the dose-response relation. As for `COC1/C=C\OC2(C)Oc3c(C)c(O)c4c(O)c(c5sc(CO)nc5c4c3C2=O)NC(=O)/C(C)=C/C=C/C(C)C(O)C(C)C(O)C(C)C(OC(C)=O)C1C` (stereo not drawn) [Rifamycin Q], the Minimal inhibiton concentration came to 0.039 µg/mL (≈ 0.0507 µM) in [1] (Staphylococcus aureus ATCC 6538); 0.078 µg/mL (≈ 0.101 µM) in experiment [1] (Staphylococcus aureus ATCC 6538 (20% bovine serum)); 0.312 µg/mL (≈ 0.406 µM) in [2]; 12.5 µg/mL (≈ 16.3 µM) in [3]; 50 µg/mL (≈ 65 µM) in experiment [4]; 2.5 µg/mL (≈ 3.25 µM) in experiment [5]. The Minimal inhibiton concentration in [6] was 0.019 µg/mL (≈ 0.0247 µM); in experiment [7], 12.5 µg/mL (≈ 16.3 µM); in experiment [8] (Staphylococcus aureus Tour rifampicin-resistant) it was over 100 µg/mL; in [9], 50 µg/mL (≈ 65 µM); in experiment [11], 0.06 µg/mL (≈ 0.078 µM); in [12], 0.039 µg/mL (≈ 0.0507 µM). Moreover, the ED50 in [10] (s.c.) is 8 mg/kg.
Consider `COC1C=COC2(C)Oc3c(C)c(O)c4c(c3C2=O)C(=O)C=C(NC(=O)C(CO)=CC=CC(C)C(O)C(C)C(O)C(C)C(OC(C)=O)C1C)C4=O` (stereo not drawn) [Rifamycin R], for which the MIC in [1] (ATCC6538, Staphylococcus aureus ATCC 6538 (20% bovine serum)) came to 0.0047 µg/mL (≈ 0.0066 µM); in [1] (ATCC6538, Staphylococcus aureus ATCC 6538), 0.019 µg/mL (≈ 0.0267 µM); in experiment [2] (Enterococcus faecalis, ATCC10541, read-out: Minimal inhibiton concentration) it was 0.19 µg/mL (≈ 0.267 µM); in experiment [3] (ATCC10536, read-out: Minimal inhibiton concentration), 50 µg/mL (≈ 70.2 µM); in [4] (ATCC10145, read-out: Minimal inhibiton concentration) it was 100 µg/mL (≈ 140 µM); in experiment [5] (Mycobacterium tuberculosis, read-out: Minimal inhibiton concentration), 0.1 µg/mL (≈ 0.14 µM). The MIC stood at 0.00312 µg/mL (≈ 0.00438 µM) in [6] (Streptococcus pyogenes, C203, read-out: Minimal inhibiton concentration); 12.5 µg/mL (≈ 17.6 µM) in [7] (ATCC881, read-out: Minimal inhibiton concentration); 100 µg/mL (≈ 140 µM) in [8] (Staphylococcus aureus, read-out: Minimal inhibiton concentration); 0.00235 µg/mL (≈ 0.0033 µM) in [11] (read-out: Minimal inhibiton concentration); 0.00625 µg/mL (≈ 0.00878 µM) in experiment [12] (Streptococcus pneumoniae, UC41, read-out: Minimal inhibiton concentration).
As to `COC1C=COC2(C)Oc3c(C)c(O)c4c(O)c(cc(OCC(=O)O)c4c3C2=O)NC(=O)C(C)=CC=CC(C)C(O)C(C)C(O)C(C)C(OC(C)=O)C1C` (stereo not drawn) [rifamycin B], the “inhibition of the growth of Bacillus subtilis” value in experiment [13] was “practically inactive”.
In the case of `CO[C@H]1/C=C/O[C@@]2(C)Oc3c(C)c(O)c4c(O)c(cc(O)c4c3C2=O)NC(=O)/C(C)=C\C=C\[C@H](C)[C@H](O)[C@@H](C)[C@@H](O)[C@@H](C)[C@H](OC(C)=O)[C@@H]1C` [rifamycin SV], the ED50 in experiment [10] (po, o.s., read-out: ED50) came out at 74 mg/kg; in experiment [10] (sc, read-out: ED50), 17 mg/kg.
